Experiment [1] in a line: NIH3T3 cell viability loss – ATP luminescence, mouse fibroblasts, counter-screen, dose response (AID 2010).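 Also: cells exposed to compound for about 90 hours before reading.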 Format: functional, cell-based. A general note: The purpose of a counterscreen is to sort out artefacts and off-target activity.
The nature of experiment [2]: viability loss in HeLa cells – cytotoxicity control for MgcRacGAP inhibitor project, dose response (AID 624300). Format: functional.
The subject of experiment [3] is Vero. Briefly: cells. Format: functional. To be noted: Chlorocebus sabaeus.
A short description of experiment [4]: Trypanosoma cruzi growth suppression in host cells – NIH3T3 host cells, beta-gal luminescence, confirmation (AID 2044).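 Also: intracellular parasites grown in NIH/3T3 mouse fibroblasts as host cells; luminescent beta-galactosidase reporter signal from transgenic T. cruzi replicating inside host cells; inhibitors lower the luminescence signal.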 Format: functional, cell-based.
Experiment [5] can be described thus: viability loss in THP-1 monocytes – THP-1 cells, cytotoxicity control for Vif-APOBEC3G degradation inhibitor project, dose response (AID 1117359). Type of experiment: functional. The following applies: THP-1.
Experiment [6] in a line: Dd2 malaria parasite growth inhibition potency – SYBR Green, dry powder samples, dose response (AID 1159566).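 Also: potency for growth inhibition with lower SYBR green DNA signal.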 Format: functional, cell-based.
The nature of experiment [7]: toxicity to human HepG2 hepatoma cells – cell-based, plate reader, dry powder samples, cytotoxicity control, dose response (AID 1159569).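 Also: inhibitor potency with signal falling toward the positive control level.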 Type of experiment: functional.
A short description of experiment [8]: P. falciparum Dd2 growth inhibitors, dose response, SYBR Green, cherry-picked samples (AID 1159567). Format: functional, cell-based.
Experiment [9] in a line: growth inhibition of PfATP4-mutant resistant parasites – NITD609-resistant line, SYBR Green, dry powder, dose response (AID 1159571).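 Also: parasites synchronized at ring stage by sorbitol before testing.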 Format: functional, cell-based.
Experiment [10] in a line: toxicity to human hepatoma HepG2 cells – cell-based, cherry-picked samples, cytotoxicity control, dose response (AID 1159577). Format: functional.
Experiment [11] is described as follows: growth inhibition of yeast DHODH-expressing 3D7 parasites – SYBR Green, dry powder samples, dose response (AID 1159570).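 Also: parasite growth measured after 72 hours of compound exposure.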 Format: functional, cell-based.
Experiment [12] has as its system Vero. Nature of the experiment: mammalian cell viability reduction – secondary assay, cytotoxicity control for West Nile virus antiviral project, dose response (AID 1650). Format: functional. The following applies: Chlorocebus sabaeus.
The next experiment can be described thus: cells. Format: functional, cell-based. To be noted: HEK-CNG.
In another experiment the target is T1, Galanin receptor type 3 (Homo sapiens, UniProt O60755).
T1 sequence (O60755 whole entry): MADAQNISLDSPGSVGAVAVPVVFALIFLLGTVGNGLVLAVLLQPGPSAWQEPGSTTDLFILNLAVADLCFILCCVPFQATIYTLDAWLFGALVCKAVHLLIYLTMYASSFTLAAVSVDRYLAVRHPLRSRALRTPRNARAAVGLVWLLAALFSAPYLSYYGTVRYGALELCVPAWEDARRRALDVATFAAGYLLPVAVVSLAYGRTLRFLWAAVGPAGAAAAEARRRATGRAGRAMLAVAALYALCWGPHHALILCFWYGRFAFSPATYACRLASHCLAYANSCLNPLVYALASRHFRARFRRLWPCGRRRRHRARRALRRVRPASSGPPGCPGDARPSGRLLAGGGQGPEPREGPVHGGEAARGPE
Briefly: Fluorescence-based cell-based primary high throughput dose response assay to identify antagonists of the Galanin Receptor 3 (GalR3). Type of experiment: functional.

Experiment [13] concerns the target Luciferin 4-monooxygenase (Photinus pyralis, UniProt P08659). Nature of the experiment: inhibition of purified Photinus pyralis luciferase – biochemical, luminescence, dose response (AID 1891).
Experiment [14] can be described thus: Luminescence Cell-Based Dose Confirmation HTS to Identify Inhibitors of Platelet Dense Granule Release. [Related pubchem assays: 1663 (Primary HTS), 1678 (Summary of Project)]. Type of experiment: functional.
Experiment [15] can be described thus: Luminescence Cell-Based Dose Response HTS to Identify Inhibitors of 5'UTR Stem-Loop Driven Prion Protein mRNA Translation in H4 Neuroglioblastoma Cells. [Related pubchem assays: 1827 (Project Summary), 1813 (Primary HTS)]. Type of experiment: functional.
Experiment [16] in a line: alpha-synuclein stem-loop luciferase translation blockers – H4 neuroglioma cells, luminescence, confirmation (AID 1988). Format: functional, cell-based.
For experiment [17], the target named is T2, Oxysterols receptor LXR-beta (Homo sapiens, UniProt P55055).
T2 sequence (P55055 whole entry): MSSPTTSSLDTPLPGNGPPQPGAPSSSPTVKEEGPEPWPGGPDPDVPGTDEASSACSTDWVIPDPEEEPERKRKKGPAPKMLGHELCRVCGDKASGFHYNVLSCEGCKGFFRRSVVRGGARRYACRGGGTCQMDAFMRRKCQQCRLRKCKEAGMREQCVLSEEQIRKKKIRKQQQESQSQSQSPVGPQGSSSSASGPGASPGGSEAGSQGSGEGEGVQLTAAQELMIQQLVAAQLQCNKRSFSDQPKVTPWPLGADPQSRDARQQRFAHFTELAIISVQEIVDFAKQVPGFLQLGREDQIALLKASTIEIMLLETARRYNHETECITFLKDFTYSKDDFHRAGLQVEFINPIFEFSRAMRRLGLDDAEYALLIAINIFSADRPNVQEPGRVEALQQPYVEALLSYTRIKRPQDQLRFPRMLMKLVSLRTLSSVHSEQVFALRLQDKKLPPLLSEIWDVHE
Nature of the experiment: LXR agonists, Gal4 luciferase reporter, dose response, counter-screen for ssDAF-12 agonist project, cell-based, luminescence, HEK293, S. stercoralis campaign (AID 720737). Format: functional. To be noted: read-out: IC50 (the source's name). On the technique in general: Reporter assays use an easily measured gene product as a stand-in for the process of interest.

Experiment [18] can be described thus: Luminescence-based cell-based high throughput dose response assay to identify activators of the DAF-12 from the parasite S. stercoralis (ssDAF-12). Format: functional.
For experiment [19], the target named is Photoreceptor-specific nuclear receptor (Homo sapiens, UniProt Q9Y5X4). Type of experiment: functional, cell-based.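 Also: CHO-S cells with Gal4-NCOR and VP16-NR2E3 two-hybrid luciferase reporter.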
Sequence of Photoreceptor-specific nuclear receptor (Q9Y5X4 whole entry, the tested form may be a part): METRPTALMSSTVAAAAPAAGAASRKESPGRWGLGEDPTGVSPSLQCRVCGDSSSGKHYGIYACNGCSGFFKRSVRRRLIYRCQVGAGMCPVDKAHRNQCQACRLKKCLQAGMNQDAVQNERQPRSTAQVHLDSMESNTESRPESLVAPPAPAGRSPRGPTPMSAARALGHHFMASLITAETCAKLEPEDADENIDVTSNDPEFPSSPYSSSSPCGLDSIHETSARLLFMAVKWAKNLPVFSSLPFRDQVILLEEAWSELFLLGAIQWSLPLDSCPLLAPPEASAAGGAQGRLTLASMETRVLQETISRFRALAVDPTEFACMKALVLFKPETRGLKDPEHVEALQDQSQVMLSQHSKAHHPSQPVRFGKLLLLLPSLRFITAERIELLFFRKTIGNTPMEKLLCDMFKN
The target of experiment [20] is T3, Interleukin-8 (Homo sapiens, UniProt P10145).
T3 sequence (P10145 whole entry): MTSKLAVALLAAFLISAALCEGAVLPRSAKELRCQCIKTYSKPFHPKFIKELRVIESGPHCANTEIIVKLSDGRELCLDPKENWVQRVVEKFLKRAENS
Nature of the experiment: Dose Response confirmation of uHTS small molecule hits for cystic fibrosis induced NFkb Inhibitors in a TNFa-induced IL8 counterscreen. Type of experiment: functional. The following applies: read-out: IC50_Mean.

Experiment [21] concerns the target T3, Interleukin-8. Briefly: Dose Response confirmation of uHTS small molecule hits for cystic fibrosis induced NFkb Inhibitors in a PAF-induced IL8 counterscreen. Format: functional. To be noted: read-out: IC50_Mean.
Experiment [22] addresses T4, Fatty acid synthase (Homo sapiens, UniProt P49327). Briefly: inhibition of human FAS-TE enzyme activity – biochemical, kinetic fluorescence intensity, dose response (AID 624326).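 Also: rate of fluorescence rise from hydrolysis of a fluorogenic O-methyl fluorescein ester substrate.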 Type of experiment: functional.
Experiment [23] has as its target T4, Fatty acid synthase. Briefly: inhibition of human FAS-TE enzyme activity – biochemical, endpoint fluorescence intensity, uHTS hits, dose response (AID 624327).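 Also: fluorescence from hydrolysis of an O-methyl fluorescein acyl ester substrate by the enzyme.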 Format: functional.
Experiment [24] addresses T5, Rac GTPase-activating protein 1 (Homo sapiens, UniProt Q9H0H5).
T5 sequence (Q9H0H5 whole entry): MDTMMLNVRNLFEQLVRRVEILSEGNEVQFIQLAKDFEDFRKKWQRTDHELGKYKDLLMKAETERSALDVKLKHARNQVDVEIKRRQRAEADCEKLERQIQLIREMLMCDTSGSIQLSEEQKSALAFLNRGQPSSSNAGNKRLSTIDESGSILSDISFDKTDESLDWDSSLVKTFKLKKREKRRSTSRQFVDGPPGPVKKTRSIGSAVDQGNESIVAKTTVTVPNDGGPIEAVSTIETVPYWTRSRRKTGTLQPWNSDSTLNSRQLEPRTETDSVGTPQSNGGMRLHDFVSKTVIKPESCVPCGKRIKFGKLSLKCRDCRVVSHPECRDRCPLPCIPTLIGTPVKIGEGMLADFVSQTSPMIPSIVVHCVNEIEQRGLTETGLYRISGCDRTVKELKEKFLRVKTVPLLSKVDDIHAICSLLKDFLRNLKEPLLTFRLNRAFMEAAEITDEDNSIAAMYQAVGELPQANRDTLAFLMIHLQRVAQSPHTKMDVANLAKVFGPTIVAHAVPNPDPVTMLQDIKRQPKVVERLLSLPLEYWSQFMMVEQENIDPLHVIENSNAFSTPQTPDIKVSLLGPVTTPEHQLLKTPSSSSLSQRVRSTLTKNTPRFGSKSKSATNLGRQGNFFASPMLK
Nature of the experiment: blockers of MgcRacGAP-driven Rac1 GTP hydrolysis – biochemical, ADP Hunter fluorescence, primary and confirmatory, confirmation (AID 624330). Format: functional.

SMILES strings stand for the structures. Activity calls are given as the source filed them.

T4 sequence (P49327 whole entry): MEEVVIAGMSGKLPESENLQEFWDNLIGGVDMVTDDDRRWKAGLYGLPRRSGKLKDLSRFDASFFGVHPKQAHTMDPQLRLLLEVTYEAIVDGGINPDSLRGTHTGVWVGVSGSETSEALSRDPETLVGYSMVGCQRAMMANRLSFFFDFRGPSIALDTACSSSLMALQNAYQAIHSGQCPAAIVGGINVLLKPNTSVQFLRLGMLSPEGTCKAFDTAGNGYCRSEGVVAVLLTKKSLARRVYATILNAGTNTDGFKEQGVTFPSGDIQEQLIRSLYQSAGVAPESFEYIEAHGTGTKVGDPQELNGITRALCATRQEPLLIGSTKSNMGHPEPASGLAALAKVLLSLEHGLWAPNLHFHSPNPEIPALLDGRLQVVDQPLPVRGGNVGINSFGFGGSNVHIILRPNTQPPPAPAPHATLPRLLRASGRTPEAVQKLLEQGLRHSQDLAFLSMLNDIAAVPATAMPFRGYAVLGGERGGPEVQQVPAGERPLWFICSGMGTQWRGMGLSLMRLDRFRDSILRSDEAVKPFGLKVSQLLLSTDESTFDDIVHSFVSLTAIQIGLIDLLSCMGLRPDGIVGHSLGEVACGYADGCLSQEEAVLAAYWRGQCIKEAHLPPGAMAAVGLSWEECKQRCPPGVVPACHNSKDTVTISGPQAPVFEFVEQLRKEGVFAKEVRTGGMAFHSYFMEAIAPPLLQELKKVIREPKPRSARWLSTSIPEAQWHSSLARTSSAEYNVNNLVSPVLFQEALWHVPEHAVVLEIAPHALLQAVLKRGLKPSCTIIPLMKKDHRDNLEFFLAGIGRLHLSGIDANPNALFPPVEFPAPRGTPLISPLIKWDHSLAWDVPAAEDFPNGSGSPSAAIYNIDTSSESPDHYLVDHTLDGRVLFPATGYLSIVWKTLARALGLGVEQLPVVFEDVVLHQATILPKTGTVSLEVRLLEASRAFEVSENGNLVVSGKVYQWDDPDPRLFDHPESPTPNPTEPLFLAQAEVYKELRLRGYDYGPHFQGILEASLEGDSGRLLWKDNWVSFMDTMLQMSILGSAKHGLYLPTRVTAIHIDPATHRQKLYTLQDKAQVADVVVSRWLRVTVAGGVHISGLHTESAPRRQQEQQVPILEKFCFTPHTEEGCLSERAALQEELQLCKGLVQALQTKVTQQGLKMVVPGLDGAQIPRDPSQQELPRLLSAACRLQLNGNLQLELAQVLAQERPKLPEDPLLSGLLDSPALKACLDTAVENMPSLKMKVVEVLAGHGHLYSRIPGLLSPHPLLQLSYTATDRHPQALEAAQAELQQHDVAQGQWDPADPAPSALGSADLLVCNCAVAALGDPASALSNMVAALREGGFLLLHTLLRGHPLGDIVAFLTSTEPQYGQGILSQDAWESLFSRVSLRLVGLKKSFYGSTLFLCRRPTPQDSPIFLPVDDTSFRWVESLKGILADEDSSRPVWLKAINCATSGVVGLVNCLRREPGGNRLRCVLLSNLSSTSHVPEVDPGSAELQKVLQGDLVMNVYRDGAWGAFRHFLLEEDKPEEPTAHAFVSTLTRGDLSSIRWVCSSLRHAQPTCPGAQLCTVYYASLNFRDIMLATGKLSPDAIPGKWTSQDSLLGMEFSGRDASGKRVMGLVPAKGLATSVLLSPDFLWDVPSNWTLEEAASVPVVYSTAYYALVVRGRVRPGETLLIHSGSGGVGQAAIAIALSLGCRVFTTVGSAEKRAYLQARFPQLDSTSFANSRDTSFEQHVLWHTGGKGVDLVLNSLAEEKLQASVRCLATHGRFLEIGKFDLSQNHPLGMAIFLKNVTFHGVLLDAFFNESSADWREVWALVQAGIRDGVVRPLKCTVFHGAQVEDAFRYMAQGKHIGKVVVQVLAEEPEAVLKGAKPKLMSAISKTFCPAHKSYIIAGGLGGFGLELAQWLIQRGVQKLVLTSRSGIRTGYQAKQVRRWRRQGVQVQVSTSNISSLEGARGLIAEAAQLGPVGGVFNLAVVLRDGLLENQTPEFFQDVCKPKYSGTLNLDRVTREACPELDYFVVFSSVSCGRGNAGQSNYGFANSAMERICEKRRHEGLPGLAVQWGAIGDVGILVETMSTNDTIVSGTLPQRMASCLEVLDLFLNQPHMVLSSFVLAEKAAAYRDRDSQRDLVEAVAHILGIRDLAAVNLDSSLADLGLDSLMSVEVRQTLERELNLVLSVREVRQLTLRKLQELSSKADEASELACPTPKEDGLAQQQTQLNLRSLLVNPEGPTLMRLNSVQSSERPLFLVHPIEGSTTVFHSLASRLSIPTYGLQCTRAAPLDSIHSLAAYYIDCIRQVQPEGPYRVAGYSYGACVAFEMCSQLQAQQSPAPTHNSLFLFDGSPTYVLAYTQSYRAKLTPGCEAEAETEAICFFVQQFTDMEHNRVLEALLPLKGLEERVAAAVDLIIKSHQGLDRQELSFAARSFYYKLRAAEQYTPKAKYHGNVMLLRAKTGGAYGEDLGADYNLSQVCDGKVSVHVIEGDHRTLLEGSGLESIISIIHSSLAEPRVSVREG
Sequence of Luciferin 4-monooxygenase (P08659 whole entry): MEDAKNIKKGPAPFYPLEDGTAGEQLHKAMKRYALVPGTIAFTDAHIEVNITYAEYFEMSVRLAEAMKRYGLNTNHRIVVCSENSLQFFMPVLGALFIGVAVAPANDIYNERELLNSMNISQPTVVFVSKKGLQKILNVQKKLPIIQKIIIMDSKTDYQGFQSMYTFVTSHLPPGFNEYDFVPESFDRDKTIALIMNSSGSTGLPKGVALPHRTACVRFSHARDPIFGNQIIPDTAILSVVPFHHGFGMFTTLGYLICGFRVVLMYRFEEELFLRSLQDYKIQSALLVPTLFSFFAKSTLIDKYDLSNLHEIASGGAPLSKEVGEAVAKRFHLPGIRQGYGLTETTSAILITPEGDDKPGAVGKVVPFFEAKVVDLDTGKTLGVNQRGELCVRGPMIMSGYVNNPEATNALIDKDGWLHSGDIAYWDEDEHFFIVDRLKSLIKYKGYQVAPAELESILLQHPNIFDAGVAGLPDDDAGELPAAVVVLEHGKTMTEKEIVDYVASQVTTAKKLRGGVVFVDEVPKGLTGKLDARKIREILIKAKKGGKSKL

With `N=C(N)N/N=C/c1ccc(Cl)cc1Cl`, the results for the EC50 in [1] and in experiment [4] were 19.4 µM (active) and 0.204 µM (active), respectively. The CC50 – broadly, the concentration giving 50% cytotoxicity – in experiment [2] was 66.3 µM (active); with Vero [3], 18.9 µM (active).

Turning to `O=S(=O)(Nc1ccc2[nH]c(O)nc2c1)c1ccc(F)c(Cl)c1`, the CC50 in experiment [5] was > 40 µM (active).

Consider `Cc1ccc(-c2ccc3c(c2)O[C@@H](CN(C)Cc2ccncc2)[C@H](C)CN([C@@H](C)CO)S3(=O)=O)cc1`, for which the AC50 (commonly the midpoint of the concentration-response curve, whichever way the signal moves) in [6] is 2.2 µM (active); in [7], 24.4 µM (active); in [8], 2.73 µM (active); in experiment [9], 2.19 µM (active); in [10] it was > 39 µM (inactive); in experiment [11] it was 2.23 µM (active).

For the molecule `CCc1ccc(-c2nc(CN3CCC(C(=O)N4CCN(c5ccccc5)CC4)CC3)c(C)o2)cc1`, in the experiment on Vero [12], the CC50 is 16.3 µM (active).

With `CC1CC(=O)NN=C1c1ccc(N)c([N+](=O)[O-])c1` (configuration not stated), the EC50 in “cells” is > 29.9 µM (inactive); in [13], > 112 µM (not active); in experiment [14], < 0.088 µM (active). For the same molecule, the IC50 at Galanin receptor type 3 was 0.26 µM (active).

Turning to `COc1cccc(C(=O)Cn2c(=N)n(C)c3ccccc32)c1`, the EC50 is 17.7 µM (active) in experiment [15], 6.57 µM (active) in experiment [16] and > 67.5 µM (inactive) in experiment [17]. Further, the IC50 in experiment [18] is > 67.5 µM (inactive).

For the molecule `CCC1(O)C(=O)OCc2c1cc1n(c2=O)Cc2cc3cc(O)ccc3nc2-1` (configuration not stated), the figures for the IC50 (in experiment [19]; on Interleukin-8 [20]; on Interleukin-8 [21]) were 4.21 µM (active), 40.5 µM (inactive) and 3 µM (active), respectively.

With `O=C(CC12CC3CC(CC(C3)C1)C2)Nc1nncs1`, the IC50 on Interleukin-8 [20] is 3.19 µM (active); at Interleukin-8 [21], 9.42 µM (active).

As for `Cc1nc2ccc([N+](=O)[O-])cc2c(=O)n1Cc1ccc(Cl)cc1`, the IC50 at Fatty acid synthase [22] is 1.05 µM (active); at Fatty acid synthase [23], 0.906 µM (active).

With `COc1cccc(C#Cc2ccc([C@@H]3[C@@H](CO)N(C(=O)C4CCCC4)[C@H]3C#N)cc2)c1`, the half-maximal activity concentration (AC50) in experiment [8] is 4.4 µM (active); in [10] it was > 39 µM (inactive).

On to `COc1cc2c(cc1NC(=O)C(Cl)Cl)-c1ccc(NC(=O)C(Cl)Cl)cc1C2`, for which, in experiment [2], the CC50 is 10.3 µM (active). Further, the IC50 in [24] is 58.4 µM (active).

`Cc1nc(NC(=O)c2c(-c3ccccc3Cl)noc2C)sc1C`: the IC50 in experiment [19] was 4.19 µM (active).

For the origin of these results see ChEMBL document CHEMBL1201862, “PubChem BioAssay data set” (2004).
